We go through 3 compounds from BindingDB's records for doi:10.1016/S0960-894X(97)10006-3 (1997).

pIC50: −log10 of the molar value.

One may read the pIC50 as −log10 of the IC50, conventionally taken in molar units.

A short description of this test: Binding affinity for DHP (Dihydropyridine) site of L-type calcium channel of calf heart in the resting state.
In the case of `CCOC(=O)C1=C(C)NC(C)=C(C#N)[C@@H]1c1cnccc1-c1cccc2ccccc12`, the negative logarithm of the IC50 (pIC50) is 6.57.
For `CCOC(=O)C1=C(C)NC(C)=C(C#N)[C@@H]1c1cnccc1-c1ccc2ccccc2c1`, the pIC50 is 7.00.
On to `CCOC(=O)C1=C(C)NC(C)=C(C#N)[C@@H]1c1cnccc1-c1ccccc1`, for which the pIC50 was 6.60.
